Results: patent US20260374754A1, “N-((ISOQUINOLIN-6-YL)METHYL)-1H-PYRAZOLE-4-CARBOXAMIDE DERIVATIVES AS PLASMA KALLIKREIN INHIBITORS FOR THE TREATMENT OF HEREDITARY ANGIODEMA” (Takeda Pharmaceutical Company Limited, priority 2022, published 2026)

Molecular target: human activated kallikrein enzyme (Homo sapiens, UniProt P03952)
Assay: Inhibition of human activated plasma kallikrein, fluorogenic PFR-AMC substrate, 500 pM enzyme format
Assay type: biochemical
Settings: 500 pM activated kallikrein; 300 μM PFR-AMC; 30 min preincubation; 10 min room temperature; pH 7.5; read-out: Primary Dose Response Assay: Average EC50
Experimental: Compounds were evaluated for inhibition of the human activated kallikrein enzyme in two formats of an assay employing a fluorogenic peptide substrate. In one assay format, the concentrations of reagents were as follows: 20 mM Tris pH 7.5, 1 mM EDTA, 150 mM sodium chloride, 0.1% PEG-400, 0.1% Triton X-100, 500 pM activated kallikrein enzyme, 300 μM Pro-Phe-Arg-7-amido-4-methylcoumarin (PFR-AMC) substrate. Prior to reaction initiation with substrate, enzyme and inhibitors were preincubated for 30 min at room temperature. After initiation with substrate, reactions were incubated for 10 min at room temperature and fluorescence emission at 460 nm from 380 nm excitation measured with a microplate reader. In another assay format, the concentrations of reagents were as follows: 20 mM Tris pH 7.5, 1 mM EDTA, 150 mM sodium chloride, 0.1% PEG-400, 0.1% Triton X-100, 5 pM activated kallikrein enzyme, 300 uM PFR-AMC substrate. Prior to reaction initiation with substrate, enzyme and inhibitors were preincubated for 30 min at room temperature. After initiation with substrate, reactions were incubated for 18 hr at room temperature and fluorescence emission at 460 nm from 380 nm excitation measured with a microplate reader.
Table 35 provides the results of the assay in the format with 500 pM activated kallikrein assay.

Sequence of human activated kallikrein enzyme (P03952 391-638 limits assumed): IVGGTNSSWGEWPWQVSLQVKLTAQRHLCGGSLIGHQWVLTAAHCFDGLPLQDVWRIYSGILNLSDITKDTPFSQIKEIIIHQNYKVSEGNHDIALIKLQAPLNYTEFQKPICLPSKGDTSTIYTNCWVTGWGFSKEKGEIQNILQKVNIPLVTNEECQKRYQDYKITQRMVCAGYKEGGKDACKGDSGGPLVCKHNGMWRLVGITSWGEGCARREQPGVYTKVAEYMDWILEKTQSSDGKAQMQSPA
Sequence of human activated kallikrein enzyme (P03952 20-390 partner limits assumed): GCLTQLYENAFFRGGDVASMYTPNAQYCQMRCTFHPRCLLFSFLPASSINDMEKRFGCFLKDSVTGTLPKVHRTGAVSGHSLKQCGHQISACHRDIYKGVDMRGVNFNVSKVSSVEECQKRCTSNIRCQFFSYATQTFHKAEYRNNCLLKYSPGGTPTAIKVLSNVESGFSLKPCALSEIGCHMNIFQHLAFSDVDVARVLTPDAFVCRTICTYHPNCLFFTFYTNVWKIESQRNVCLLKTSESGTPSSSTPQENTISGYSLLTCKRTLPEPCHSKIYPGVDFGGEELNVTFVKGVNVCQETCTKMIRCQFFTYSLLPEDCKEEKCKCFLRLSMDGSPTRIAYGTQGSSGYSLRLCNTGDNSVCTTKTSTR

Compound | EC50
Cc1cccc(Cn2cc(C(=O)NCc3c(C)cc4c(N)nccc4c3C)cn2)c1 [Example 41, N-((1-amino-5,7-dimethylisoquinolin-6-yl)methyl)-1-(3-methylbenzyl)-1H-pyrazole-4-carboxamide] | 10 to 100 nM
Cc1cc2c(N)nccc2c(C)c1CNC(=O)c1cnn(Cc2ccc(Cc3nnco3)cc2)c1 [Example 44, 1-(4-((1,3,4-oxadiazol-2-yl)methyl)benzyl)-N-((1-amino-5,7-dimethylisoquinolin-6-yl)methyl)-1H-pyrazole-4-carboxamide] | 1 to 10 nM
Cc1cc2c(N)nccc2c(C)c1CNC(=O)c1cnn(Cc2cccc(F)c2)c1 [Example 45, N-((1-amino-5,7-dimethylisoquinolin-6-yl)methyl)-1-(3-fluorobenzyl)-1H-pyrazole-4-carboxamide] | 100 to 1000 nM
Cc1cc2c(N)nccc2c(C)c1CNC(=O)c1cnn(Cc2ccc(-n3ccccc3=O)nc2)c1 [Example 46, N-((1-amino-5,7-dimethylisoquinolin-6-yl)methyl)-1-((2-oxo-2H-[1,2'-bipyridin]-5'-yl)methyl)-1H-pyrazole-4-carboxamide] | 10 to 100 nM
Cc1cc2c(N)nccc2c(C)c1CNC(=O)c1cnn(Cc2ccc(CCn3cccn3)cc2)c1 [Example 48, 1-(4-(2-(1H-pyrazol-1-yl)ethyl)benzyl)-N-((1-amino-5,7-dimethylisoquinolin-6-yl)methyl)-1H-pyrazole-4-carboxamide] | 1 to 10 nM
Cc1cc2c(N)nccc2c(C)c1CNC(=O)c1cnn(Cc2ccc(CCn3ccccc3=O)cc2)c1 [Example 49, N-((1-amino-5,7-dimethylisoquinolin-6-yl)methyl)-1-(4-(2-(2-oxopyridin-1(2H)-yl)ethyl)benzyl)-1H-pyrazole-4-carboxamide] | 1 to 10 nM
Cc1cc2c(N)nccc2c(C)c1CNC(=O)c1cnn(Cc2cc3cc(Br)ccc3o2)c1 [Example 50, N-((1-amino-5,7-dimethylisoquinolin-6-yl)methyl)-1-((5-bromobenzofuran-2-yl)methyl)-1H-pyrazole-4-carboxamide] | 1 to 10 nM
Cc1cc2c(N)nccc2c(C)c1CNC(=O)c1cnn(Cc2cc3cc(Br)ccc3s2)c1 [Example 51, N-((1-amino-5,7-dimethylisoquinolin-6-yl)methyl)-1-((5-bromobenzo[b]thiophen-2-yl)methyl)-1H-pyrazole-4-carboxamide] | < 1 nM
Cc1cc2c(N)nccc2c(C)c1CNC(=O)c1cnn(Cc2ccc3c(cnn3C)c2)c1 [Example 52, N-((1-amino-5,7-dimethylisoquinolin-6-yl)methyl)-1-((1-methyl-1H-indazol-5-yl)methyl)-1H-pyrazole-4-carboxamide] | 1 to 10 nM
Cc1cc2c(N)nccc2c(C)c1CNC(=O)c1cnn(Cc2cn3ccccc3n2)c1 [Example 53, N-((1-amino-5,7-dimethylisoquinolin-6-yl)methyl)-1-(imidazo[1,2-a]pyridin-2-ylmethyl)-1H-pyrazole-4-carboxamide] | 1 to 10 nM
Cc1cc2c(N)nccc2c(C)c1CNC(=O)c1cnn(Cc2cn3cccc(C)c3n2)c1 [Example 54, N-((1-amino-5,7-dimethylisoquinolin-6-yl)methyl)-1-((8-methylimidazo[1,2-a]pyridin-2-yl)methyl)-1H-pyrazole-4-carboxamide] | 1 to 10 nM
CCOC(=O)Cc1ccc(Cn2cc(C(=O)NCc3c(C)cc4c(N)nccc4c3C)cn2)cc1 [Example 55, ethyl 2-(4-((4-(((1-amino-5,7-dimethylisoquinolin-6-yl)methyl)carbamoyl)-1H-pyrazol-1-yl)methyl)phenyl)acetate] | 1 to 10 nM
Cc1cc2c(N)nccc2c(C)c1CNC(=O)c1cnn(Cc2cc3cc(F)ccc3o2)c1 [Example 57, N-((1-amino-5,7-dimethylisoquinolin-6-yl)methyl)-1-((5-fluorobenzofuran-2-yl)methyl)-1H-pyrazole-4-carboxamide] | 10 to 100 nM
Cc1cc2c(N)nccc2c(C)c1CNC(=O)c1cnn(Cc2ccc3c(c2)nnn3C)c1 [Example 58, N-((1-amino-5,7-dimethylisoquinolin-6-yl)methyl)-1-((1-methyl-1H-benzo[d][1,2,3]triazol-5-yl)methyl)-1H-pyrazole-4-carboxamide] | 1 to 10 nM
Cc1cc2c(N)nccc2c(C)c1CNC(=O)c1cnn(Cc2ccc3cnn(C)c3c2)c1 [Example 59, N-((1-amino-5,7-dimethylisoquinolin-6-yl)methyl)-1-((1-methyl-1H-indazol-6-yl)methyl)-1H-pyrazole-4-carboxamide] | 1 to 10 nM
Cc1cc2c(N)nccc2c(C)c1CNC(=O)c1cnn(Cc2cc3c(Cl)cccc3s2)c1 [Example 62, N-((1-amino-5,7-dimethylisoquinolin-6-yl)methyl)-1-((4-chlorobenzo[b]thiophen-2-yl)methyl)-1H-pyrazole-4-carboxamide] | 1 to 10 nM
Cc1cc2c(N)nccc2c(C)c1CNC(=O)c1cnn(Cc2ccc(CC(=O)N(C)C)cc2)c1 [Example 63, N-((1-amino-5,7-dimethylisoquinolin-6-yl)methyl)-1-(4-(2-(dimethylamino)-2-oxoethyl)benzyl)-1H-pyrazole-4-carboxamide] | < 1 nM
Cc1cc2c(N)nccc2c(C)c1CNC(=O)c1cnn(Cc2cc3cc(Cl)ccc3s2)c1 [Example 65, N-((1-amino-5,7-dimethylisoquinolin-6-yl)methyl)-1-((5-chlorobenzo[b]thiophen-2-yl)methyl)-1H-pyrazole-4-carboxamide] | < 1 nM
Cc1cc2c(N)nccc2c(C)c1CNC(=O)c1cnn(Cc2cc3cc(C(F)(F)F)ccc3s2)c1 [Example 66, N-((1-amino-5,7-dimethylisoquinolin-6-yl)methyl)-1-((5-(trifluoromethyl)benzo[b]thiophen-2-yl)methyl)-1H-pyrazole-4-carboxamide] | 1 to 10 nM
Cc1cc2c(N)nccc2c(C)c1CNC(=O)c1cnn(Cc2cnc3ccc(Br)cc3c2)c1 [Example 70, N-((1-amino-5,7-dimethylisoquinolin-6-yl)methyl)-1-((6-bromoquinolin-3-yl)methyl)-1H-pyrazole-4-carboxamide] | < 1 nM

Now from value to compound:

EC50 | Compound
> 1000 nM | Cc1cc2c(N)nccc2c(C)c1CNC(=O)c1cnn(Cc2ccccc2C(F)(F)F)c1 [Example 42, N-((1-amino-5,7-dimethylisoquinolin-6-yl)methyl)-1-(2-(trifluoromethyl)benzyl)-1H-pyrazole-4-carboxamide]
10 to 100 nM | COc1cccc(Cn2cc(C(=O)NCc3c(C)cc4c(N)nccc4c3C)cn2)c1 [Example 43, N-((1-amino-5,7-dimethylisoquinolin-6-yl)methyl)-1-(3-methoxybenzyl)-1H-pyrazole-4-carboxamide]
10 to 100 nM | Cc1cc2c(N)nccc2c(C)c1CNC(=O)c1cnn(Cc2oc3ccccc3c2C)c1 [Example 47, N-((1-amino-5,7-dimethylisoquinolin-6-yl)methyl)-1-((3-methylbenzofuran-2-yl)methyl)-1H-pyrazole-4-carboxamide]
1 to 10 nM | Cc1cc2c(N)nccc2c(C)c1CNC(=O)c1cnn(Cc2ccc3ccccc3c2)c1 [Example 56, N-((1-amino-5,7-dimethylisoquinolin-6-yl)methyl)-1-(naphthalen-2-ylmethyl)-1H-pyrazole-4-carboxamide]
< 1 nM | Cc1cc2c(N)nccc2c(C)c1CNC(=O)c1cnn(Cc2ccc3ncccc3c2)c1 [Example 60, N-((1-amino-5,7-dimethylisoquinolin-6-yl)methyl)-1-(quinolin-6-ylmethyl)-1H-pyrazole-4-carboxamide]
< 1 nM | Cc1cc2c(N)nccc2c(C)c1CNC(=O)c1cnn(Cc2cnc3cc(Cl)ccc3c2)c1 [Example 61, N-((1-amino-5,7-dimethylisoquinolin-6-yl)methyl)-1-((7-chloroquinolin-3-yl)methyl)-1H-pyrazole-4-carboxamide]
< 1 nM | Cc1ccc2cc(Cn3cc(C(=O)NCc4c(C)cc5c(N)nccc5c4C)cn3)ccc2n1 [Example 64, N-((1-amino-5,7-dimethylisoquinolin-6-yl)methyl)-1-((2-methylquinolin-6-yl)methyl)-1H-pyrazole-4-carboxamide]
1 to 10 nM | COc1nc2ccccc2cc1Cn1cc(C(=O)NCc2c(C)cc3c(N)nccc3c2C)cn1 [Example 67, N-((1-amino-5,7-dimethylisoquinolin-6-yl)methyl)-1-((2-methoxyquinolin-3-yl)methyl)-1H-pyrazole-4-carboxamide]
10 to 100 nM | Cc1cc2c(N)nccc2c(C)c1CNC(=O)c1cnn(Cc2nc3ccccc3n2C(F)F)c1 [Example 68, N-((1-amino-5,7-dimethylisoquinolin-6-yl)methyl)-1-((1-(difluoromethyl)-1H-benzo[d]imidazol-2-yl)methyl)-1H-pyrazole-4-carboxamide]
1 to 10 nM | Cc1cc2c(N)nccc2c(C)c1CNC(=O)c1cnn(Cc2ccc3cc(Br)ccc3n2)c1 [Example 69, N-((1-amino-5,7-dimethylisoquinolin-6-yl)methyl)-1-((6-bromoquinolin-2-yl)methyl)-1H-pyrazole-4-carboxamide]
100 to 1000 nM | Cc1cc2c(N)nccc2c(C)c1CNC(=O)c1cnn(Cc2nc3ccccc3n2C(C)C)c1 [Example 71, N-((1-amino-5,7-dimethylisoquinolin-6-yl)methyl)-1-((1-isopropyl-1H-benzo[d]imidazol-2-yl)methyl)-1H-pyrazole-4-carboxamide]
